Test systems include MDA-MB-231 breast; RXF 393 renal; U251 CNS; SF-268 CNS; KM12 colon; SN12C renal; HOP-92 NSCLC; BT-549 breast; NCI-H23 lung; SF-295 CNS.
What all share (experiment): NCI anticancer screen, dose series, 48 h

Each structure is given as a SMILES string.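 Method: 48-hour compound exposure of cells in 96-well plates, five concentrations, linear interpolation of endpoints. At the GI50, growth is halved. Definition used: TGI = concentration required for complete inhibition of growth.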 Bounds are passed on as bounds.

As to `COc1cnc2c(c1)C(=O)c1c-2n(CCCN2CCNCC2)c(=O)c2cc(F)ccc12`, the GI50 was 0.479 µM with MDA-MB-231 breast; 0.27 µM with RXF 393 renal; 0.0841 µM in the assay with U251 CNS; 0.282 µM with SF-268 CNS; 0.168 µM in the assay with KM12 colon; 0.0806 µM in the assay with SN12C renal. Also, the GI50 is 0.139 µM with HOP-92 NSCLC, 1.25 µM in the assay on BT-549 breast and 0.233 µM in the assay with NCI-H23 lung. Also, the TGI with MDA-MB-231 breast worked out at 1.94 µM; with RXF 393 renal, 1.73 µM; in the assay with U251 CNS, 1.05 µM; with SF-268 CNS, 1.86 µM; in the assay on KM12 colon it was 1.16 µM; in the assay on SN12C renal, 0.89 µM. In addition, the TGI in the assay on HOP-92 NSCLC amounted to 2.95 µM; with BT-549 breast, 4.32 µM; with NCI-H23 lung, 1.47 µM.

Turning to `O=c1[nH]c(-c2ccncc2)nc2sc3c(c12)CCCCCC3`, the GI50 with MDA-MB-231 breast, in the assay on RXF 393 renal, in the assay with U251 CNS, in the assay with SF-268 CNS, in the assay with KM12 colon and in the assay with SN12C renal was more than 100 µM in each case. The GI50 in the assay with HOP-92 NSCLC, in the assay on BT-549 breast and with NCI-H23 lung was more than 100 µM throughout. The TGI in the assay on MDA-MB-231 breast, with RXF 393 renal, in the assay on U251 CNS, with SF-268 CNS, in the assay with KM12 colon and in the assay on SN12C renal was more than 100 µM throughout. In addition, the TGI in the assay on HOP-92 NSCLC, in the assay on BT-549 breast and in the assay with NCI-H23 lung was more than 100 µM in each case.

For `Cc1ccccc1C1N=C2Oc3ccccc3C=C2C(=O)N1` (configuration not stated), the GI50 in the assay on MDA-MB-231 breast is 1.81 µM; with SF-295 CNS it was 1.46 µM; with RXF 393 renal, 0.488 µM; with U251 CNS, 11.7 µM; with SF-268 CNS it was 9.2 µM; in the assay on KM12 colon it was 15 µM. Further, the GI50 is 8.33 µM in the assay on SN12C renal, 7.32 µM in the assay on BT-549 breast and 2.5 µM in the assay with NCI-H23 lung. The TGI is 33.3 µM with MDA-MB-231 breast; more than 25.9 µM with SF-295 CNS; more than 100 µM in the assay on U251 CNS; more than 100 µM in the assay on SF-268 CNS; more than 100 µM in the assay on KM12 colon; more than 100 µM in the assay with SN12C renal. Moreover, the TGI in the assay with BT-549 breast and in the assay on NCI-H23 lung was more than 100 µM throughout.

For the molecule `Cc1nn(-c2ccccc2)c2c1[C@@H](C)[C@H]1CC3(CC4(C)C[C@@H]3C1(C)c1c(C)nn(-c3ccccc3)c1N4C)N2C` (some centres not stated), the GI50 in the assay with MDA-MB-231 breast is more than 100 µM; with RXF 393 renal it was 3.41 µM; in the assay on SF-268 CNS, more than 100 µM; in the assay on SN12C renal, more than 100 µM; in the assay on HOP-92 NSCLC, 0.792 µM; with BT-549 breast, more than 100 µM. The GI50 with NCI-H23 lung is more than 100 µM. The TGI with MDA-MB-231 breast is more than 100 µM; in the assay with RXF 393 renal, 48.2 µM; in the assay with SF-268 CNS, more than 100 µM; in the assay with SN12C renal, more than 100 µM; with HOP-92 NSCLC, 8.68 µM; in the assay on BT-549 breast, more than 100 µM. For the same molecule, in the assay on NCI-H23 lung, the TGI was more than 100 µM.

On to `CN(C)c1ccc(-c2cc(-c3cccc(NS(C)(=O)=O)c3)nc(N)c2C#N)cc1`, for which the GI50 in the assay with MDA-MB-231 breast is 0.11 µM; in the assay with SF-295 CNS, 0.0274 µM; with RXF 393 renal it was 0.0183 µM; in the assay on U251 CNS it was 0.0418 µM; with SF-268 CNS, 0.0561 µM; in the assay on KM12 colon it was 0.0381 µM. Also, the GI50 with SN12C renal is 0.0537 µM; in the assay on BT-549 breast, 0.0645 µM; in the assay on NCI-H23 lung, 0.0457 µM. In addition, the TGI with MDA-MB-231 breast was 1.52 µM; in the assay with SF-295 CNS it was 3.95 µM; in the assay on RXF 393 renal it was 0.0565 µM; in the assay with U251 CNS, 20.4 µM; in the assay on SF-268 CNS it was 28.9 µM; with KM12 colon it was 1.75 µM. Moreover, the TGI worked out at 20.7 µM in the assay with SN12C renal, 4.65 µM in the assay on BT-549 breast and 20.5 µM with NCI-H23 lung.

For the molecule `COc1cc(C(=O)N[C@@H]2CCCN(C)C2)ccc1Nc1ncc2c(n1)N(C1CCCC1)CC(C)(C)C(=O)N2C`, the GI50 in the assay on MDA-MB-231 breast was 1.56 µM; in the assay with SF-295 CNS, 0.109 µM; in the assay on RXF 393 renal it was 0.0427 µM; in the assay with U251 CNS, 0.0465 µM; with SF-268 CNS, 0.588 µM; in the assay with KM12 colon, 0.0343 µM. Further, the GI50 in the assay with SN12C renal is 0.347 µM; in the assay on BT-549 breast, 0.73 µM; in the assay with NCI-H23 lung, 0.041 µM. Also, the TGI came out at 15.6 µM in the assay with MDA-MB-231 breast; 3.56 µM in the assay with SF-295 CNS; 8.99 µM in the assay with RXF 393 renal; 5.48 µM with U251 CNS; 20.1 µM in the assay with SF-268 CNS; 18.3 µM in the assay on KM12 colon. In addition, the TGI with SN12C renal turned out to be 16.6 µM; in the assay with BT-549 breast, 18 µM; with NCI-H23 lung it was 3.01 µM.

On to `COc1ccc(-c2cc(-c3ccc(Cl)cc3)c(C#N)c(=O)n2CCCCCC(=O)Nc2ccccc2N)cc1`, for which the GI50 was 7.12 µM in the assay with MDA-MB-231 breast; 1.77 µM with RXF 393 renal; 6.19 µM in the assay with U251 CNS; 14.9 µM in the assay with SF-268 CNS; 4.58 µM with KM12 colon; 7.66 µM in the assay on SN12C renal. Moreover, the values for the GI50 in the assay with HOP-92 NSCLC, in the assay with BT-549 breast and in the assay with NCI-H23 lung were 1.96 µM, 4.49 µM and 6.04 µM, respectively. For the same molecule, the TGI in the assay with MDA-MB-231 breast is more than 100 µM; with RXF 393 renal it was 5.68 µM; in the assay on U251 CNS, more than 100 µM; in the assay on SF-268 CNS, more than 100 µM; in the assay with KM12 colon it was 27 µM; in the assay on SN12C renal, more than 100 µM. The TGI in the assay on HOP-92 NSCLC is 9.93 µM; in the assay with BT-549 breast, 43.7 µM; in the assay with NCI-H23 lung, 27.3 µM.

`CC1SC(c2ccc(OCc3ccccc3)cc2)N(NC(=O)C(O)(c2ccccc2)c2ccccc2)C1=O` (configuration not stated): the GI50 was 4.31 µM with MDA-MB-231 breast; 1.78 µM in the assay with SF-295 CNS; 4.06 µM in the assay on U251 CNS; 3.66 µM with SF-268 CNS; 2.29 µM with KM12 colon; 3.95 µM with SN12C renal. The results for the GI50 in the assay with HOP-92 NSCLC, with BT-549 breast and in the assay on NCI-H23 lung were 1.14 µM, 5.45 µM and 2.7 µM, respectively. In addition, the TGI was found to be 15.5 µM in the assay on MDA-MB-231 breast; 4.53 µM in the assay on SF-295 CNS; 15.3 µM in the assay on U251 CNS; 15 µM in the assay with SF-268 CNS; 6.32 µM in the assay on KM12 colon; 13.8 µM in the assay with SN12C renal. Moreover, the TGI was determined as 4.74 µM in the assay with HOP-92 NSCLC, 22.4 µM in the assay with BT-549 breast and 13.8 µM in the assay with NCI-H23 lung.

Take `O=C(/C=C/c1c[nH]c2ccccc12)c1ccccc1O`: the TGI came to 18.4 µM in the assay with MDA-MB-231 breast; 22.3 µM in the assay on SF-295 CNS; 40.4 µM with U251 CNS; 40 µM in the assay on SF-268 CNS; 70.1 µM with KM12 colon; 28.8 µM in the assay on SN12C renal. Also, the TGI in the assay on HOP-92 NSCLC was 17.1 µM; in the assay on BT-549 breast, 28.3 µM.

Values taken from PubChem BioAssay (NCI).
